According to patent US9745335B2 (Blirt S.A., priority 2012, dated 2017):
Values after ≈ are worked out from the molar mass of the structure shown. Like-named read-outs stand apart in the source and are kept apart here.

Assays:
[1] = test system: Candida albicans ATCC 10231; experiment: antifungal activity in vitro, serial dilution in RPMI 1640; format: cell-based
Description: (§1) For the determination of antifungal activity in vitro we used method of serial dilution in buffered medium RPMI 1640, pH 7.0, in a 96-wells microplates, according to the standard procedure (National Committee for Clinical Laboratory Standards. Reference method for broth dilution antifungal susceptibility testing of yeast, approved standard, 2nd ed. M27-A2 vol. 22 Wayne, Pa., 2002). The optical density of cells suspension was measured using a microplates reader (Victor^3, Perkin-Elmer) at the wavelength λ=531 nm (A531). On the basis of obtained results the diagrams of relation between A531 values and concentration of examined compound were made.

[2] = test system: Candida glabrata DSM 11226; experiment: as above; format: cell-based
Description: as §1

Candida krusei DSM 6128 = experiment: as above; format: cell-based
Description: as §1

[3] = test system: Candida lusitaniae DSM 70102; experiment: as above; format: cell-based
Description: as §1

[4] = test system: Candida tropicalis KKP 334; experiment: as above; format: cell-based
Description: as §1

[5] = test system: Saccharomyces cerevisiae ATCC 9763; experiment: as above; format: cell-based; conditions: RPMI 1640, pH 7.0; for Antifungal activity IC50: Saccharomyces cerevisiae ATCC 9763 (first head over MIC and IC50); for Antifungal activity MIC: Saccharomyces cerevisiae ATCC 9763
Description: as §1

Human erythrocytes = experiment: hemotoxicity determination (hemolytic activity); format: cell-based
Description: The hemotoxicity determination was carried out by the serial dilutions method, according to the procedure described earlier (Slisz, M., et al., E., J Antibiot 57: 669-678 (2004). Human erythrocytes were suspended in the solution of saline to obtain a cell density of suspension 2×10^7/ml. Suitable amounts of diluted solutions of compounds were added to the cell suspension in tubes and were incubated at 37° C. for 30 minutes and then centrifuged (1700×g, 10 min, 4° C.). The concentration of hemoglobin in supernatant after centrifugation of erythrocytes suspension were determined by measuring the absorbance at wavelength λ=540 nm (A540). The maximum level of hemolysis was obtained after incubation of cells suspension in the presence of 0.1% Tritone X-100 (control sample). […] From these graphs, the EH50 values were read which are the interpolated concentrations of compound, for which the A540 value is exactly 50% of the A540 value measured for the control sample.

[6] = test system: Aspergillus niger LOCK E201; experiment: antifungal activity in vitro, broader spectrum; format: cell-based
Description: as §1
(§2) Obtained results are presented below in tables 2A and 2B.

Candida albicans SC 5314 = experiment: antifungal activity in vitro, broader spectrum; format: cell-based
Description: as §1, §2

Candida arborea KKP 319 = experiment: antifungal activity in vitro, broader spectrum; format: cell-based
Description: as §1, §2

[7] = test system: Candida dubliniensis CBS 7987; experiment: antifungal activity in vitro, broader spectrum; format: cell-based
Description: as §1, §2

[8] = test system: Candida lipolytica KKP 322; experiment: antifungal activity in vitro, broader spectrum; format: cell-based
Description: as §1, §2

[9] = test system: Candida parapsilosis DSM 5784; experiment: antifungal activity in vitro, broader spectrum; format: cell-based
Description: as §1, §2

[10] = test system: Candida pseudotropicalis KKP 324; experiment: antifungal activity in vitro, broader spectrum; format: cell-based
Description: as §1, §2

[11] = test system: Candida quilliermondii DSM 11947; experiment: antifungal activity in vitro, broader spectrum; format: cell-based
Description: as §1, §2

[12] = test system: Candida stellatoidea CBS 1905; experiment: antifungal activity in vitro, broader spectrum; format: cell-based
Description: as §1, §2

[13] = test system: Trichoderma viride LOCK E159; experiment: antifungal activity in vitro, broader spectrum; format: cell-based
Description: as §1, §2

[14] = test system: Candida albicans clinical strain B3; experiment: antifungal activity against MDR fungal strains and parents; format: cell-based; conditions: C. albicans B3, fluconazole sensitive, parent strain for B4
Description: as §1

[15] = test system: Candida albicans clinical strain B4 (CaMdr1p); experiment: as above; format: cell-based; conditions: C. albicans B4 (CaMdr1p), fluconazole-resistant
Description: as §1

[16] = test system: Candida albicans clinical strain F2; experiment: as above; format: cell-based; conditions: C. albicans F2, fluconazole sensitive, parent strain for F5
Description: as §1

[17] = test system: Candida albicans clinical strain F5 (CaMdr1p); experiment: as above; format: cell-based; conditions: C. albicans F5 (CaMdr1p), fluconazole-resistant
Description: as §1

[18] = test system: Candida albicans clinical strain Gu4; experiment: as above; format: cell-based; conditions: C. albicans Gu4, fluconazole sensitive, parent strain for Gu5
Description: as §1

[19] = test system: Candida albicans clinical strain Gu5 (CaCdr1p, CaCdr2p); experiment: as above; format: cell-based; conditions: C. albicans Gu5 (CaCdr1p, CaCdr2p), fluconazole-resistant
Description: as §1

[20] = test system: Candida albicans strain 5674 (CaCdr1p, CaCdr2p); experiment: as above; format: cell-based; conditions: C. albicans 5674 (CaCdr1p, CaCdr2p)
Description: as §1

[21] = test system: Candida albicans strain STY31; experiment: as above; format: cell-based; conditions: C. albicans STY31, 5674 derivative, deletion of CDR1 and CDR2
Description: as §1

[22] = test system: Candida albicans strain STY7 (CaCdr1p); experiment: as above; format: cell-based; conditions: C. albicans STY7 (CaCdr1p), 5674 derivative, deletion of CDR2
Description: as §1

CCRF-CEM cells = experiment: cytotoxic activity against mammalian cells in tissue culture (MTT); format: cell-based, human
Description: (§3) All media contained 100 μg/ml of penicillin G and streptomycin. 24-wells microplates containing appropriate medium were inoculated with the cells in amount of 1.2×10^4 cells/well and allowed to stand overnight. Next, tested compounds as solution in dimethylsulfoxide (DMSO) were added in volume of 10 μl (serial 2× dilutions). To control well 10 μl of DMSO was added. Microplates with cell suspensions were incubated for 120 h at temperature 37° C. at atmosphere of 95%/5% CO2. After incubation, to all wells 200 μl of solution of 3-(4,5-dimethyltiazole-2-yl)-2,5-diphenylotetrazole bromide (MTT) in PBS (4 mg/ml) was added and plates were further incubated for 4 h at 37° C. Next, to dissolve crystals of formazane 1 ml of DMSO was added and absorption of solutions was measured at the wavelength λ=540 nm (A540), using a microplates reader (Victor^3, Perkin-Wallac). […] From these graphs IC50 values were read, that is concentration of tested compound in the presence at which A540 value is half of A540 value measured in the control sample.

HepG2 cells = experiment: as above; format: cell-based, human
Description: as §3

LLC-PK1 cells = experiment: as above; format: cell-based, pig
Description: as §3

Molecule	Antifungal activity MIC [1] [µg/mL]	Antifungal activity MIC [2] [µg/mL]	Antifungal activity MIC (Candida krusei DSM 6128) [µg/mL]	Antifungal activity MIC [3] [µg/mL]	Antifungal activity MIC [4] [µg/mL]	Antifungal activity IC50 [5] [µg/mL]	Antifungal activity MIC [5] [µg/mL]	Hemotoxi EH50 (Human erythrocytes) [µg/mL]	Antifungal activity MIC [6] [µg/mL]	Antifungal activity MIC (Candida albicans SC 5314) [µg/mL]	Antifungal activity MIC (Candida arborea KKP 319) [µg/mL]	Antifungal activity MIC [7] [µg/mL]	Antifungal activity MIC [8] [µg/mL]	Antifungal activity MIC [9] [µg/mL]	Antifungal activity MIC [10] [µg/mL]	Antifungal activity MIC [11] [µg/mL]	Antifungal activity MIC [12] [µg/mL]	IC50 (cytotoxic activity) (CCRF-CEM cells) [µg/mL]	IC50 (cytotoxic activity) (HepG2 cells) [µg/mL]	IC50 (cytotoxic activity) (LLC-PK1 cells) [µg/mL]	other results
C[C@@H]1[C@H](O)[C@@H](C)/C=C/C=C/C=C/C=C/C=C/C=C/C=C/[C@H](O[C@@H]2O[C@H](C)[C@@H](O)[C@H](NC(=S)NCCN3CCCCC3)[C@@H]2O)C[C@@H]2O[C@](O)(C[C@@H](O)C[C@@H](O)[C@H](O)CC[C@@H](O)C[C@@H](O)CC(=O)O[C@H]1C)C[C@H](O)[C@H]2C(=O)O [Compound A22, N-{[3-(2-piperidin-1-yl)ethyl]thioureidyl}amphotericin B]	1	4	2	1	1	0.71	1	>100	2	2	2	1	1	2	2	1	1	>100	>100	>100	Antifungal activity MIC [13]: 2 µg/mL; Antifungal activity MIC [14]: 0.25 µg/mL; Antifungal activity MIC [15]: 4 µg/mL; Antifungal activity MIC [16]: 4 µg/mL; Antifungal activity MIC [17]: 8 µg/mL; Antifungal activity MIC [18]: 0.25 µg/mL; Antifungal activity MIC [19]: 2 µg/mL; Antifungal activity MIC [20]: 1 µg/mL; Antifungal activity MIC [21]: 2 µg/mL; Antifungal activity MIC [22]: 2 µg/mL
N-(L-N,N-diethylphenylalanyl)amphotericin B [Compound A42]	4	8	8	4	4	2.75	4	>100	1	4	4	2	4	4	4	4	4	>100	>100	>100	Antifungal activity MIC [13]: 2 µg/mL; Antifungal activity MIC [14]: 2 µg/mL; Antifungal activity MIC [15]: 8 µg/mL; Antifungal activity MIC [16]: 1 µg/mL; Antifungal activity MIC [17]: 2 µg/mL; Antifungal activity MIC [18]: 2 µg/mL; Antifungal activity MIC [19]: 4 µg/mL; Antifungal activity MIC [20]: 4 µg/mL; Antifungal activity MIC [21]: 4 µg/mL; Antifungal activity MIC [22]: 4 µg/mL
C[C@@H]1[C@H](O)[C@@H](C)/C=C/C=C/C=C/C=C/C=C/C=C/C=C/[C@H](O[C@@H]2O[C@H](C)[C@@H](O)[C@H](NC(=O)[C@H](N)CC(=O)OC(C)(C)C)[C@@H]2O)C[C@@H]2O[C@](O)(C[C@@H](O)C[C@@H](O)[C@H](O)CC[C@@H](O)C[C@@H](O)CC(=O)O[C@H]1C)C[C@H](O)[C@H]2C(=O)O [Compound A35, N-D-(O^β-tert-butyl)asparagylamphotericin B]	4	4	4	2	4	1.40	4														Hemotoxi EH50 (Human erythrocytes; human erythrocytes, 37° C., 30 minutes): >100 µg/mL; IC50 (cytotoxic activity) (CCRF-CEM cells; CCRF-CEM, 120 h, MTT): >100 µg/mL; IC50 (cytotoxic activity) (HepG2 cells; HepG2, 120 h, MTT): >100 µg/mL; IC50 (cytotoxic activity) (LLC-PK1 cells; LLC-PK1, 120 h, MTT): 70.7 ± 2.3 µg/mL (≈ 64.5 µM)
C[C@@H]1[C@H](O)[C@@H](C)/C=C/C=C/C=C/C=C/C=C/C=C/C=C/[C@H](O[C@@H]2O[C@H](C)[C@@H](O)[C@H](NC(=S)NCCN(C)C)[C@@H]2O)C[C@@H]2O[C@](O)(C[C@@H](O)C[C@@H](O)[C@H](O)CC[C@@H](O)C[C@@H](O)CC(=O)O[C@H]1C)C[C@H](O)[C@H]2C(=O)O [Compound A28, N-{3-[2-(N,N-dimethylamino)ethyl]thioureidyl}amphotericin B]	1	4	2	1	1	0.50	1	81.73										>100	>100	>100	
